Results published in the NIST ThermoML archive (doi:10.1016/j.jct.2013.05.040).
± gives the expanded uncertainty stated by the source.

What was measured:
[1] = Liquid; for mass density: Vibrating tube method; for viscosity: 101.33 kPa, Moving piston method
[2] = xn = mol fraction of the nth substance listed; details: Liquid; for viscosity: Moving piston method; for mass density: Vibrating tube method

CC(C)O [propan-2-ol]
mass density ([1]; 302.9 K, 1040 kPa): 778.1 ± 0.3 kg/m3
mass density ([1]; 302.9 K, 2000 kPa): 778.9 ± 0.4 kg/m3
mass density ([1]; 302.9 K, 2990 kPa): 779.8 ± 0.4 kg/m3
mass density ([1]; 302.9 K, 4060 kPa): 780.8 ± 0.4 kg/m3
mass density ([1]; 302.9 K, 5010 kPa): 781.6 ± 0.4 kg/m3
mass density ([1]; 302.9 K, 6000 kPa): 782.5 ± 0.4 kg/m3
mass density ([1]; 302.9 K, 7020 kPa): 783.4 ± 0.4 kg/m3
mass density ([1]; 302.9 K, 8020 kPa): 784.3 ± 0.4 kg/m3
mass density ([1]; 302.9 K, 9000 kPa): 785.1 ± 0.4 kg/m3
mass density ([1]; 302.9 K, 10000 kPa): 786 ± 0.4 kg/m3
viscosity ([1]; 303.3 K): 1.716 ± 0.17 mPa·s
mass density ([1]; 323 K, 1000 kPa): 760.6 ± 0.4 kg/m3
mass density ([1]; 323 K, 2020 kPa): 761.6 ± 0.4 kg/m3
mass density ([1]; 323 K, 3000 kPa): 762.7 ± 0.4 kg/m3
mass density ([1]; 323 K, 4070 kPa): 763.7 ± 0.4 kg/m3
mass density ([1]; 323 K, 5000 kPa): 764.7 ± 0.4 kg/m3
mass density ([1]; 323 K, 6010 kPa): 765.7 ± 0.4 kg/m3
mass density ([1]; 323 K, 7020 kPa): 766.7 ± 0.4 kg/m3
mass density ([1]; 323 K, 8010 kPa): 767.7 ± 0.4 kg/m3
mass density ([1]; 323 K, 9010 kPa): 768.6 ± 0.4 kg/m3
mass density ([1]; 323 K, 10020 kPa): 769.6 ± 0.4 kg/m3
viscosity ([1]; 323.2 K): 0.973 ± 0.04 mPa·s

C [methane] + CC(C)O
viscosity ([2]; 302.8 K, 1070 kPa, x1 = 0.019): 1.523 ± 0.19 mPa·s
mass density ([2]; 302.8 K, 1070 kPa, x1 = 0.019): 771.2 ± 1 kg/m3
viscosity ([2]; 302.8 K, 2080 kPa, x1 = 0.037): 1.403 ± 0.16 mPa·s
mass density ([2]; 302.8 K, 2080 kPa, x1 = 0.037): 767.2 ± 2.9 kg/m3
viscosity ([2]; 302.8 K, 3190 kPa, x1 = 0.055): 1.339 ± 0.11 mPa·s
mass density ([2]; 302.8 K, 3190 kPa, x1 = 0.055): 761.2 ± 1 kg/m3
viscosity ([2]; 302.8 K, 4080 kPa, x1 = 0.069): 1.262 ± 0.073 mPa·s
mass density ([2]; 302.8 K, 4080 kPa, x1 = 0.069): 756.5 ± 3.2 kg/m3
viscosity ([2]; 302.8 K, 5080 kPa, x1 = 0.085): 1.208 ± 0.18 mPa·s
mass density ([2]; 302.8 K, 5080 kPa, x1 = 0.085): 753.3 ± 2 kg/m3
viscosity ([2]; 302.8 K, 6060 kPa, x1 = 0.1): 1.129 ± 0.051 mPa·s
mass density ([2]; 302.8 K, 6060 kPa, x1 = 0.1): 748.9 ± 1 kg/m3
viscosity ([2]; 323.1 K, 980 kPa, x1 = 0.018): 0.908 ± 0.077 mPa·s
mass density ([2]; 323.1 K, 980 kPa, x1 = 0.018): 754.5 ± 2.6 kg/m3
viscosity ([2]; 323.1 K, 2020 kPa, x1 = 0.033): 0.847 ± 0.098 mPa·s
mass density ([2]; 323.1 K, 2020 kPa, x1 = 0.033): 750 ± 1.9 kg/m3
viscosity ([2]; 323.1 K, 3080 kPa, x1 = 0.049): 0.8 ± 0.09 mPa·s
mass density ([2]; 323.1 K, 3080 kPa, x1 = 0.049): 745 ± 1.9 kg/m3
viscosity ([2]; 323.1 K, 4080 kPa, x1 = 0.065): 0.74 ± 0.095 mPa·s
mass density ([2]; 323.1 K, 4080 kPa, x1 = 0.065): 740.7 ± 1.3 kg/m3
viscosity ([2]; 323.1 K, 4980 kPa, x1 = 0.078): 0.717 ± 0.026 mPa·s
mass density ([2]; 323.1 K, 4980 kPa, x1 = 0.078): 736.9 ± 3.2 kg/m3
viscosity ([2]; 323.1 K, 6040 kPa, x1 = 0.093): 0.676 ± 0.035 mPa·s
mass density ([2]; 323.1 K, 6040 kPa, x1 = 0.093): 732.3 ± 2.3 kg/m3

CC(C)O [propan-2-ol] + O=C=O
viscosity ([2]; 302.8 K, 990 kPa, x2 = 0.062): 1.365 ± 0.061 mPa·s
mass density ([2]; 302.8 K, 990 kPa, x2 = 0.062): 783.8 ± 1.3 kg/m3
viscosity ([2]; 302.8 K, 2000 kPa, x2 = 0.133): 1.108 ± 0.057 mPa·s
mass density ([2]; 302.8 K, 2000 kPa, x2 = 0.133): 791 ± 1.3 kg/m3
viscosity ([2]; 302.8 K, 2980 kPa, x2 = 0.212): 0.895 ± 0.13 mPa·s
mass density ([2]; 302.8 K, 2980 kPa, x2 = 0.212): 798.5 ± 1.3 kg/m3
viscosity ([2]; 302.8 K, 3970 kPa, x2 = 0.304): 0.604 ± 0.029 mPa·s
mass density ([2]; 302.8 K, 3970 kPa, x2 = 0.304): 807.3 ± 3.2 kg/m3
viscosity ([2]; 323.1 K, 980 kPa, x2 = 0.047): 0.895 ± 0.077 mPa·s
mass density ([2]; 323.1 K, 980 kPa, x2 = 0.047): 762.7 ± 2.6 kg/m3
viscosity ([2]; 323.1 K, 1960 kPa, x2 = 0.102): 0.743 ± 0.12 mPa·s
mass density ([2]; 323.1 K, 1960 kPa, x2 = 0.102): 767.2 ± 1.9 kg/m3
viscosity ([2]; 323.1 K, 2950 kPa, x2 = 0.164): 0.657 ± 0.071 mPa·s
mass density ([2]; 323.1 K, 2950 kPa, x2 = 0.164): 771.5 ± 3.2 kg/m3
viscosity ([2]; 323.1 K, 3930 kPa, x2 = 0.23): 0.538 ± 0.081 mPa·s
mass density ([2]; 323.1 K, 3930 kPa, x2 = 0.23): 776.1 ± 2 kg/m3
viscosity ([2]; 323.1 K, 4930 kPa, x2 = 0.305): 0.394 ± 0.04 mPa·s
mass density ([2]; 323.1 K, 4930 kPa, x2 = 0.305): 780.3 ± 2.6 kg/m3
viscosity ([2]; 323.1 K, 5940 kPa, x2 = 0.391): 0.321 ± 0.017 mPa·s
mass density ([2]; 323.1 K, 5940 kPa, x2 = 0.391): 783.7 ± 2.6 kg/m3

CC [ethane] + CC(C)O
viscosity ([2]; 302.9 K, 1030 kPa, x1 = 0.09): 1.251 ± 0.058 mPa·s
mass density ([2]; 302.9 K, 1030 kPa, x1 = 0.09): 751.2 ± 1.3 kg/m3
viscosity ([2]; 302.9 K, 2030 kPa, x1 = 0.199): 0.919 ± 0.042 mPa·s
mass density ([2]; 302.9 K, 2030 kPa, x1 = 0.199): 718.5 ± 1.9 kg/m3
viscosity ([2]; 302.9 K, 3040 kPa, x1 = 0.347): 0.526 ± 0.083 mPa·s
mass density ([2]; 302.9 K, 3040 kPa, x1 = 0.347): 669.3 ± 1.3 kg/m3
viscosity ([2]; 302.9 K, 3650 kPa, x1 = 0.47): 0.246 ± 0.023 mPa·s
mass density ([2]; 302.9 K, 3650 kPa, x1 = 0.47): 623 ± 1.3 kg/m3
viscosity ([2]; 323.1 K, 910 kPa, x1 = 0.057): 0.882 ± 0.12 mPa·s
mass density ([2]; 323.1 K, 910 kPa, x1 = 0.057): 741.3 ± 3.8 kg/m3
viscosity ([2]; 323.1 K, 1990 kPa, x1 = 0.141): 0.663 ± 0.067 mPa·s
mass density ([2]; 323.1 K, 1990 kPa, x1 = 0.141): 716.3 ± 1.9 kg/m3
viscosity ([2]; 323.1 K, 2970 kPa, x1 = 0.227): 0.471 ± 0.078 mPa·s
mass density ([2]; 323.1 K, 2970 kPa, x1 = 0.227): 688.2 ± 3.2 kg/m3
viscosity ([2]; 323.1 K, 3970 kPa, x1 = 0.334): 0.338 ± 0.042 mPa·s
mass density ([2]; 323.1 K, 3970 kPa, x1 = 0.334): 650.6 ± 2.6 kg/m3
viscosity ([2]; 323.1 K, 4940 kPa, x1 = 0.478): 0.217 ± 0.036 mPa·s
mass density ([2]; 323.1 K, 4940 kPa, x1 = 0.478): 593.7 ± 2.6 kg/m3
viscosity ([2]; 323.1 K, 5620 kPa, x1 = 0.644): 0.131 ± 0.011 mPa·s
mass density ([2]; 323.1 K, 5620 kPa, x1 = 0.644): 515.7 ± 1.9 kg/m3
